System: German Cockroach (Blattella germanica)
Assay: Test 1: activity against German cockroach, treated glass vial contact, mortality
Type: in vivo
Conditions: alone, 1 h exposure in treated vial
Procedure: Test 1. Activity Against German Cockroach (Blattella germanica)
Glass vials were treated with 445 μl of varying concentrations of the technical grade active ingredient dissolved in acetone. Vials were turned on their sides and placed on an automated roller table. The vials were rolled (6 rpm) uncapped to allow an even coating of the treatment. Each treatment was replicated five times.
Prior to infestation, cockroaches were incapacitated using carbon dioxide (CO2). Approximately 6 insects were transferred with featherweight, broad tip forceps into treated vials, and held in an environmental chamber at 27° C. and 80% relative humidity for one hour. Following this exposure period, a small amount of CO2 was used to incapacitate the insects facilitating removal from treated vials. Insects were then transferred to 16 oz plastic holding containers provisioned with a small piece of dry cat food and a cotton wick moistened with water, and returned to the environmental chamber. Mortality was assessed at 1, 2, and 3 days after exposure (DAE).

CC1(C)C(C=C(Cl)Cl)C1C(=O)OC(C#N)c1cccc(Oc2ccccc2)c1 (stereo not drawn) [Alphacypermethrin, alpha-cypermethrin]
Average Control % (Test Mixture 1.4, 1.96 ppm): 0%

CN(C(=O)c1ccccc1)c1cccc(C(=O)Nc2c(Br)cc(C(F)(C(F)(F)F)C(F)(F)F)cc2C(F)(F)F)c1F [Compound i) of formula (I), broflanilide]
Average Control % (Mixture 1.1, 9.2 ppm): 10%
Average Control % (Test Mixture 1.2, 10 ppm): 10%
Average Control % (Test Mixture 1.3, 9.5 ppm): 26.7%
Average Control % (Test Mixture 1.4, 9.5 ppm): 46.7%

CN/C(=N/CC1CCOC1)N[N+](=O)[O-] (centres unmarked) [Dinotefuran, dinotefuran]
Average Control % (Mixture 1.1, 2.6 ppm): 16.7%
Average Control % (Test Mixture 1.2, 4.1 ppm): 30%

CCOCn1c(-c2ccc(Cl)cc2)c(C#N)c(Br)c1C(F)(F)F [Chlorfenapyr, chlorfenapyr]
Average Control % (Test Mixture 1.3, 100 ppm): 3.3%

Reference: US11234436B2, “Method for controlling non-crop pests” (BASF Agrochemical Products B.V., priority 2015, dated 2022)
